What was measured:
[1] = molecular target: T1, human NPFFR1 (hNPFFR1) receptor (Homo sapiens, UniProt Q9GZQ6); assay: Human NPFFR1 evaluation using BRET biosensors (antagonist IC50); assay type: cell-based; settings: hNPFFR1 transiently over-expressed in HEK-293 T cells; BRET signal; stimulation by EC80 RFRP-3
T1 construct: expressed in transfected cells; host or cells: HEK-293 T cells, transient co-transfection with polyethylenimine
Method: Compounds of the present invention were tested successively for their agonist and antagonist activities on human NPFFR1 (hNPFFR1) receptor transiently over-expressed in HEK-293 T cells. Compounds exert agonist activity if, by themselves in absence of neuropeptide RFRP-3 (also named NPVF) they activate hNPFFR1; and they exert antagonist activity if they decrease the action of RFRP-3 on the receptor.
The assay used to measure compound activity is based on BRET (Bioluminescence Resonance Energy Transfer) biosensors and is designed to monitor the plasma membrane translocation of protein that interacts with specific Ga subunit. The specific effector (luciferase tagged: BRET donor) recruited at the membrane will be in close proximity to a plasma membrane anchor (GFP tagged: BRET acceptor) to induce a BRET signal. Biosensors are described in the patent application WO 2016/041093 A1 (Biosensors for monitoring biomolecule localization and trafficking in cells).
HEK-293 T cells are maintained in Dulbecco's Modified Eagle's Medium supplemented with 10% Foetal Calf Serum, 1% Penicillin/Streptomycin at 37° C./5% CO2.
Cells are co-transfected using polyethylenimine (25 kDa linear) with four DNA plasmids encoding: hNPFFR1, GαoB, a Gi family specific intracellular effector fused to luciferase (BRET donor), a plasma membrane effector fused to GFP (BRET acceptor). After transfection, cells are cultured for 48 h at 37° C./5% CO2.
Receptor activity is detected by changes in BRET signal.
On the day of the assay, cells are detached using trypsin 0.05%, resuspended in assay buffer (1.8 mM CaCl2, 1 mM MgCl2, 2.7 mM KCl, 137 mM NaCl, 0.4 mM NaH2PO4, 5.5 mM D-Glucose, 11.9 mM NaHCO3, 25 mM Hepes) and seeded in 384 well plate at a density of 20,000 cells per well. Then, plates are equilibrated 3.5 hours at 37° C. before adding compounds.
Compounds and luciferase substrate are added to the cells using an automated device (Freedom Evo®, Tecan) and BRET readings are collected on EnVision (PerkinElmer) with specific filters (410 nm BW 80 nm, 515 nm BW 30 nm).
Agonist and antagonist activities of compounds are consecutively evaluated on the same cell plate. Agonist activity is first measured after 10 minutes incubation with compound alone on the cells. Then, cells are stimulated by an EC80 RFRP-3 concentration and luminescence is recorded for additional 10 minutes. EC80 RFRP-3 concentration is the concentration giving 80% of the maximal RFRP-3 response. Agonist or antagonist activities are evaluated in comparison to basal signals evoked by assay buffer or EC80 RFRP-3 alone, respectively.
For IC50 determination, a dose-response test is performed using 20 concentrations (ranging over 6 logs) of each compound. Dose-response curves are fitted using the sigmoidal dose-response (variable slope) analysis in GraphPad Prism software (GraphPad Software) and IC50 of antagonist activity is calculated. Dose-response experiments are performed in duplicate, in two independent experiments.

T1 sequence (Q9GZQ6 whole entry): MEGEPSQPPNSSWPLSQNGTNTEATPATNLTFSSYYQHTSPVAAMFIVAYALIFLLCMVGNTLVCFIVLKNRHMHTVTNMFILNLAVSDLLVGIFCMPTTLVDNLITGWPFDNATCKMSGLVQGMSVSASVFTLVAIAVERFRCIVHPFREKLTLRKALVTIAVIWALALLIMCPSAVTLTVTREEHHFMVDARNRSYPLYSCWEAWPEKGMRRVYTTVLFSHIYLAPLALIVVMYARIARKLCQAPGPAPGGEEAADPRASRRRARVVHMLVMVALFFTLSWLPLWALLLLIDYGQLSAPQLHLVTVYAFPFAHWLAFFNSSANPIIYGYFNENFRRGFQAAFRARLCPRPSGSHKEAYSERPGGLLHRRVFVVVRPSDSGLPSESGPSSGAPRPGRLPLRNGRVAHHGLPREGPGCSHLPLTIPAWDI

SMILES | melting point [°C] | IC50 [1] [nM]
Cl.Nc1ccc(-c2ccc(C(F)(F)F)c3cccnc23)c(N)n1 [Example 54, 3-(5-(trifluoromethyl)quinolin-8-yl)pyridine-2,6-diamine] | > 250 | > 1000
Nc1ccc(-c2cccc3ncccc23)c(N)n1 [Example 34, 3-Quinolin-5-yl-pyridine-2,6-diamine] | > 250 | 100 to 1000
CCc1nc(N)ccc1-c1cccc2c(C)ccnc12.Cl [Example 91, 6-ethyl-5-(4-methylquinolin-8-yl)pyridin-2-amine] | > 250 | 100 to 1000
Cl.Nc1ccc(-c2ccccc2-c2ccc(N3CCOCC3)nc2)c(N)n1 [Example 46, 3-[2-(6-morpholino-3-pyridyl)phenyl]pyridine-2,6-diamine] | 180 to 210 | < 100
CC(C)c1nc(N)ccc1-c1csc2ccccc12.Cl [Example 10, 5-Benzo[b]thiophen-3-yl-6-isopropyl-pyridin-2-ylamine] | > 250 | 100 to 1000
CCc1nc(N)ccc1-c1cccn2ccnc12.Cl [Example 102, 6-ethyl-5-(imidazo[1,2-a]pyridin-8-yl)pyridin-2-amine] | 95 to 135 | > 1000
CCc1nc(N)ccc1-c1cccc2cc(F)cnc12.Cl [Example 97, 6-ethyl-5-(3-fluoroquinolin-8-yl)pyridin-2-amine] | 210 to 245 | < 100
Cl.Nc1ccc(-c2cccc3c2oc2ccccc23)c(N)n1 [Example 40, 3-Dibenzofuran-4-ylpyridine-2,6-diamine] | 135 to 143 | < 100
CCc1nc(N)ccc1-c1cccc2c1NCCC2.Cl [Example 106, 6-ethyl-5-(1,2,3,4-tetrahydroquinolin-8-yl)pyridin-2-amine] | 147 to 160 | 100 to 1000
CCc1nc(N)ccc1-c1c(F)ccc2c1OC(C)(C)CC2.Cl [Example 177, 6-ethyl-5-(7-fluoro-2,2-dimethylchroman-8-yl)pyridin-2-amine] | 80 to 90 | < 100
CCc1nc(N)ccc1-c1c(F)c(F)cc2cc(O)cnc12.Cl [Example 112, 8-(6-amino-2-ethylpyridin-3-yl)-6,7-difluoroquinolin-3-ol] | 204 to 210 | 100 to 1000
Cn1cc(-c2ccc(N)nc2N)c2ccccc21 [Example 16, 3-(1-Methylindol-3-yl)pyridine-2,6-diamine] | 47 to 55 | > 1000
CCc1nc(N)ccc1-c1c(F)ccc2ccc(N3CCOCC3)nc12.Cl [Example 135, 6-ethyl-5-(7-fluoro-2-morpholinoquinolin-8-yl)pyridin-2-amine] | 100 to 146 | < 100
CCc1nc(N)ccc1-c1ccccc1-c1ccc(C(F)(F)F)nc1.Cl [Example 81, 6-ethyl-5-(2-(6-(trifluoromethyl)pyridin-3-yl)phenyl)pyridin-2-amine] | > 250 | 100 to 1000
Cl.Nc1ccc(-c2c(F)ccc3cccnc23)c(CCC(F)(F)F)n1 [Example 69, 5-(7-fluoroquinolin-8-yl)-6-(3,3,3-trifluoropropyl)pyridin-2-amine] | 85 to 145 | 100 to 1000
CCc1nc(N)ccc1-c1cccc2c1NC(=O)C2.Cl [Example 163, 7-(6-amino-2-ethylpyridin-3-yl)indolin-2-one] | > 250 | 100 to 1000
Cl.Nc1ccc(-c2c(F)ccc3cccnc23)c(CC2CC2)n1 [Example 72, 6-(cyclopropylmethyl)-5-(7-fluoroquinolin-8-yl)pyridin-2-amine] | 170 to 207 | < 100
CCc1nc(N)ccc1-c1cccc2cc(C)cnc12.Cl [Example 95, 6-ethyl-5-(3-methylquinolin-8-yl)pyridin-2-amine] | > 250 | < 100

Further lines, results first:

melting point [°C] | IC50 [1] [nM] | SMILES
62 to 70 | < 100 | Nc1ccc(-c2cccc3cc[nH]c23)c(N)n1 [Example 25, 3-(1H-indol-7-yl)pyridine-2,6-diamine]
90 to 130 | < 100 | CCc1nc(N)ccc1-c1c(C)ccc2cccnc12.Cl [Example 93, 6-ethyl-5-(7-methylquinolin-8-yl)pyridin-2-amine]
197 to 211 | 100 to 1000 | CCc1nc(N)ccc1-c1cccc2cc3c(nc12)CCN(C)C3.Cl.Cl [Example 114, 6-ethyl-5-(2-methyl-1,2,3,4-tetrahydrobenzo[b][1,6]naphthyridin-6-yl)pyridin-2-amine]
35 to 70 | < 100 | CCOc1ccc2cccc(-c3ccc(N)nc3CC)c2n1.Cl [Example 94, 5-(2-ethoxyquinolin-8-yl)-6-ethylpyridin-2-amine]
110 to 120 | < 100 | CCc1nc(N)ccc1-c1c(F)cc(F)c2cc(F)cnc12.Cl [Example 145, 6-ethyl-5-(3,5,7-trifluoroquinolin-8-yl)pyridin-2-amine]
95 to 110 | < 100 | CCc1nc(N)ccc1-c1ccccc1-c1ccc(N2CCOCC2)nc1.Cl [Example 84, 6-ethyl-5-(2-(6-morpholinopyridin-3-yl)phenyl)pyridin-2-amine]
115 to 155 | > 1000 | CCc1nc(N)ccc1-c1cccc2nccn12.Cl [Example 103, 6-ethyl-5-(imidazo[1,2-a]pyridin-5-yl)pyridin-2-amine]
> 250 | 100 to 1000 | CCc1nc(N)ccc1-c1c(F)ccc2cc(-c3ccccc3)cnc12.Cl [Example 107, 6-ethyl-5-(7-fluoro-3-phenylquinolin-8-yl)pyridin-2-amine]
50 to 90 | < 100 | CCc1nc(N)ccc1-c1cccc2ccc(N3CCCOCC3)nc12.Cl [Example 133, 5-(2-(1,4-oxazepan-4-yl)quinolin-8-yl)-6-ethylpyridin-2-amine]
151 to 155 | > 1000 | CCc1nc(N)ccc1-c1csc2cc(OC)ccc12 [Example 5, 6-Ethyl-5-(6-methoxybenzothiophen-3-yl)pyridin-2-amine]
100 to 125 | < 100 | CCc1nc(N)ccc1-c1cccc2ccc(C(=O)N3CCCC3)nc12.Cl [Example 141, (8-(6-amino-2-ethylpyridin-3-yl)quinolin-2-yl)(pyrrolidin-1-yl)methanone]
195 to 200 | > 1000 | Nc1ccc(-c2cnn3ccccc23)c(N)n1 [Example 19, 3-Pyrazolo[1,5-a]pyridin-3-ylpyridine-2,6-diamine]
150 to 180 | < 100 | CCc1nc(N)ccc1-c1c(C(F)(F)F)ccc2cccnc12.Cl [Example 109, 6-ethyl-5-(7-(trifluoromethyl)quinolin-8-yl)pyridin-2-amine]
> 250 | 100 to 1000 | CCc1nc(N)ccc1-c1cccc2ccc(N3CCCC3)nc12.Cl [Example 131, 6-ethyl-5-(2-(pyrrolidin-1-yl)quinolin-8-yl)pyridin-2-amine]
35 to 38 | 100 to 1000 | Cl.Nc1ccc(-c2csc3ccccc23)c(N)n1 [Example 21, 3-(Benzothiophen-3-yl)pyridine-2,6-diamine]
120 to 150 | 100 to 1000 | CCc1nc(N)ccc1-c1ccccc1-c1cncc(C)c1.Cl [Example 85, 6-ethyl-5-(2-(5-methylpyridin-3-yl)phenyl)pyridin-2-amine]
> 250 | < 100 | CC(C)c1nc(N)ccc1-c1cccc2cccnc12.Cl [Example 11, 6-Isopropyl-5-(8-quinolyl)pyridin-2-amine]
> 250 | 100 to 1000 | Cl.Nc1ccc(-c2cccc3c2OCC3)c(N)n1 [Example 28, 3-(2,3-Dihydrobenzofuran-7-yl)pyridine-2,6-diamine]
